The test system of assay [1] is Hsp60 client Mito-RFP. Put plainly: Mito-RFP / EGFP fluorescence in transfected cells. The class given is cell-based.
The subject of assay [2] is cancer stem cells (NCI-H460 tumorspheres). Put plainly: MTT assay on tumorspheres (cancer stem cells). The class given is cell-based. Particulars: Homo sapiens, 72-h treatment. As to the method:
For IC50 determination of sphere, similar procedures were performed as mentioned above. Briefly, cells were plated in 96-well clear flat bottom ultra-low attachment cell culture plates (Corning®) with a density of 5*10^3 cells into each well with specific sphere formation medium (DMEM/F12 medium supplemented with 20 ng/mL EGF, 20 ng/mL bFGF, 2% B27). The cells were then treated with AGB at different concentrations, ranging from 0.3 to 100 μM. After 3 days of treatment, the formed tumorspheres in each well were monitored under microscope. The MTT was then applied to determine the cell viability and the cell viability of AGB-treatment group was calculated via normalization to control groups and the IC50 value was calculated from the plot curve that fitted to a Boltzmann sigmoidal function.

Assay [3] relates to U2OS cells transfected with mitochondrial-RFP reporter gene. Description: Time-lapse microscopy of mitochondrial morphology. In kind it is cell-based, human. The settings on record: 30 hour, 4 μM AGB treatment. The procedure: Another cluster highlighted in the ProTargetMiner analysis was related to mitochondrial translation and respiration function. Time-lapse microscopy was used to monitor the changes of mitochondrial morphology during a 30 hour, 4 μM AGB treatment using U2OS cells transfected with mitochondrial-RFP reporter gene (data not shown). AGB indeed triggers dynamic changes of mitochondria. As shown in the movie recorded using time-lapse microscopy (data not shown), about 5 hours after the start of the imaging, mitochondria changed to a thread-like, very elongated morphology. Then the threads slowly broke up. At about 10 h, the mitochondria became small dots and these dots got brighter. At the end of the movie (about 30 h treatment), some cells underwent mitochondrial outer membrane permeabilization (the abrupt loss of fluorescence in mitochondria) and died.

The subject of assay [4] is stem-like NCI-H460 xenograft. Put plainly: Cancer stem like xenograft model. Particulars: AGB 3 mg/kg, tail intravenous injection. In kind it is in vivo, NOD/SCID mice. The procedure:
In vivo anticancer efficacy of AGB was evaluated using the human tumor xenograft model, in which human cancer cells were inoculated into immune-deficiency mice. Briefly, twelve six-week-old (16-18 g) BALB/c nude mice were randomly divided into two groups and both received subcutaneous injection of NCI-H460 cells (2 million cells in 0.1 mL PBS) at its right flank of mice and tumor became palpable after three days of injection. Mice were received intravenous (i.v.) injections of AGB or vehicle control (10% DMSO and 0.05% Tween 80 in normal saline) every two days in two weeks. The length and width of tumor were measured by Vernier caliper and the body weight was monitored every two or three days. At the end of experiment, mice were sacrificed and decapitated. The liver, kidney, and tumor were collected and fixed in 4% formaldehyde for further haematoxylin and eosin (H&E) staining. All animal experiments in this project received human care and study protocols complied with the guidelines of the Laboratory Animal Services Centre of the University of Hong Kong. Tumor sizes and body weight were recorded before the drug injection every time and tumor volume (V) was calculated by the formula V=LW^2/2, where L is tumor length and W is tumor width. […]
The in vivo antitumor potential of AGB using the xenograft mouse model was assessed. […]

The test system of assay [5] is NCI-H460 spheres. Description: Sphere formation assay (tumorsphere self-renewal). In kind it is cell-based. The settings on record: Homo sapiens, read-out: tumorsphere forming efficiency, inhibition; for inhibition at 1 µM: 1.0 μM AGB. The procedure:
NCI-H460 cells were seeded at 3,000 cells/ml per well in specific sphere formation medium (DMEM/F12 supplemented with 20 ng/ml EGF, 20 ng/ml bFGF and 1×B-27) with or without AGB (DMSO as vehicle, 0.5 and 1.0 μM of AGB for the assay) in a 6-well Ultra Low Cluster Plate (Costar®). The concentration of DMSO was normalized to 0.5% in all wells and was 0.5%. The cells were incubated at 37° C. for five days and the spheres were photographed under an inverted microscope at 40× magnification. Primary tummorsphere were collected and enzymatically dissociated using trypsin to generate the secondary tummorsphere. The dissociated cells were re-plated at a density of 2,000 cells/mL for subsequent passages. The images were captured and four fields were randomly chosen and the relative areas occupied by the spheres were measured using ImageJ (National Institutes of Health, Bethesda, MD). Representative images were obtained from three independent experiments.

Molecules are shown by their SMILES. Read-outs that look alike come from different tables or passages of the source.

For the compound `CCCC(=O)c1c(O)c(Cc2c(O)c(Cc3c(O)c(C)c(OC)c(C(=O)CCC)c3O)c(O)c(C(=O)[C@@H](C)CC)c2O)c(O)c(C)c1OC` [AGB, Agrimol B], the EGFP fluorescence result in assay [1] (cells transfected with EGFP-expressing construct) is given as “did not show changes in fluorescence”. The “mitochondrial fluorescence (Mito-RFP) vs vehicle” value in assay [1] (cells transfected with Mito-RFP) was “significant reduction of mitochondrial fluorescence”. The IC50 in assay [2] came to 4 µM. Further, the mitochondrial morphology entry in assay [3] is recorded as “cells underwent a mitochondrial fission”. Moreover, the “tumor growth inhibition rate” value in assay [4] is recorded as 64%. Besides, the inhibition at 1 µM in assay [5] (NCI-H460, primary tumorspheres) amounted to 40.6%; in assay [5] (NCI-H460, secondary tumorspheres), 69.7%. In addition, the inhibition at 0.5 µM in assay [5] (NCI-H460, secondary tumorspheres, 0.5 μM AGB) worked out at 54.7%.

The values above are taken from patent US20250162973A1, “METHODS OF SYNTHESIS AND USES OF AGRIMOL COMPOUNDS” (Versitech Limited, priority 2022, published 2025).
